Patent publication US9375496B2, “Halogenated compounds for cancer imaging and treatment and methods for their use” (The University of British Columbia, priority 2013, dated 2016)

Assays:
PC3 cells = assay: PC3 cell viability, alamarBlue Cell Viability Assay; format: cell-based; settings: day 3, at concentrations that reduced LNCaP proliferation
Text: Effects of 8d (also referred to as I-EPI-002) on androgen-dependent proliferation of LNCaP cells treated with R1881 were compared with PC3 and DU145 cell viability by alamarBlue Cell Viability Assay (FIG. 16).

estrogen receptor-α (ER) = target: T1, estrogen receptor-α (ER) (Homo sapiens, UniProt P03372); assay: ERE-luciferase reporter assay in LNCaP cells cotransfected with full-length human ERα; format: cell-based; settings: 1.9 μM 8d, 10 nM E2 (estradiol), 24 h, LNCaP cells (FIG. 2D)
T1 construct: expression plasmids for full-length human ERα; expressed in transfected cells; host or cells: LNCaP
T1 sequence (P03372 1-595): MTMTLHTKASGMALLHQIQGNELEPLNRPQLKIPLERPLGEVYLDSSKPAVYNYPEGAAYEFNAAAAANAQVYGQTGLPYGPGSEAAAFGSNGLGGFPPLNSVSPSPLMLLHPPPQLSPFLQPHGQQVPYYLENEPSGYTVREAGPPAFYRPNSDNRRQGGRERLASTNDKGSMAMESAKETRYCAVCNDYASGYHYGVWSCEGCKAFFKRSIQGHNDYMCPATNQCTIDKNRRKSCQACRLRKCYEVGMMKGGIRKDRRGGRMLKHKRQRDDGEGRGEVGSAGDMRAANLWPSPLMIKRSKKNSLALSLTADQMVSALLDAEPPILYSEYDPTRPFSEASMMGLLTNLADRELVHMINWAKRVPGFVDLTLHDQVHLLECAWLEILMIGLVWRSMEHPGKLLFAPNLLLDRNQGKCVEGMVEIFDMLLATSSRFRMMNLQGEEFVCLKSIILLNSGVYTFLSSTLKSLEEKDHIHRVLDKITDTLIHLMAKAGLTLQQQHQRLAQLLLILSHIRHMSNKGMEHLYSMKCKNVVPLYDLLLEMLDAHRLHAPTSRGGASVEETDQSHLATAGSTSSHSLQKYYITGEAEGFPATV
Method: (§1) To assess specificity for the AR, parallel experiments were performed in LNCaP cells with endogenous AR and ectopic expression of other closely related human hormone receptors such as the progesterone receptor-beta (PRβ), glucocorticoid receptor (GR) and estrogen receptor-α (ER).
For 8d, 1 μg/mL=1.9 μM in FIGS. 2A-2D.

recombinant LBD of PR = target: T2, recombinant LBD of PR (Homo sapiens, UniProt P06401); assay: Competitive ligand-binding assay (fluorescent polarization), recombinant PR LBD; settings: 1 nM fluorescently labeled ligand, 5 h incubation, serial dilution
T2 sequence (P06401 679-913 limits assumed): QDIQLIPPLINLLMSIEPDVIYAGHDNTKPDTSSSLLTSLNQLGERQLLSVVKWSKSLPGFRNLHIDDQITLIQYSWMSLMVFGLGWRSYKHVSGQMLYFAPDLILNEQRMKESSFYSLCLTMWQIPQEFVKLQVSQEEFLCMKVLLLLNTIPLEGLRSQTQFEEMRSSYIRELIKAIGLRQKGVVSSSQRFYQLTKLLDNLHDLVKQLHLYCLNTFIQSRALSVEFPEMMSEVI
Method: Competitive ligand-binding assays to detect the displacement of fluorescently labeled ligand from recombinant LBDs (ligand binding domains) of AR, PR, GR and estrogen receptor (ER) by R1881, MDV3100, Z (also referred to as EPI-002 or EPI) or 8d (also referred to as iodinated EPI) were performed. FIGS. 14A-14E display competitive ligand-binding curves to indicate whether R1881, Z, antiandrogens (enzalutamide, hydroxyflutamide, bicalutamide) or 8d can displace 1 nM fluorescently labeled cognant ligand from recombinant LBDs of steroid hormone receptors by using fluorescent polarization (mP). Serial dilution was performed for each test compound. Mixtures were incubated for 5 h before measurement of fluorescent polarization.

[1] = target: T3, glucocorticoid receptor (GR) (Homo sapiens, UniProt P04150); assay: GRE-luciferase reporter assay in LNCaP cells cotransfected with full-length human GR; format: cell-based; settings: 1.9 μM 8d, 10 nM dexamethasone, 48 h, LNCaP cells (FIG. 2C)
T3 construct: expression plasmids for full-length human GR; expressed in transfected cells; host or cells: LNCaP
T3 sequence (P04150 1-777): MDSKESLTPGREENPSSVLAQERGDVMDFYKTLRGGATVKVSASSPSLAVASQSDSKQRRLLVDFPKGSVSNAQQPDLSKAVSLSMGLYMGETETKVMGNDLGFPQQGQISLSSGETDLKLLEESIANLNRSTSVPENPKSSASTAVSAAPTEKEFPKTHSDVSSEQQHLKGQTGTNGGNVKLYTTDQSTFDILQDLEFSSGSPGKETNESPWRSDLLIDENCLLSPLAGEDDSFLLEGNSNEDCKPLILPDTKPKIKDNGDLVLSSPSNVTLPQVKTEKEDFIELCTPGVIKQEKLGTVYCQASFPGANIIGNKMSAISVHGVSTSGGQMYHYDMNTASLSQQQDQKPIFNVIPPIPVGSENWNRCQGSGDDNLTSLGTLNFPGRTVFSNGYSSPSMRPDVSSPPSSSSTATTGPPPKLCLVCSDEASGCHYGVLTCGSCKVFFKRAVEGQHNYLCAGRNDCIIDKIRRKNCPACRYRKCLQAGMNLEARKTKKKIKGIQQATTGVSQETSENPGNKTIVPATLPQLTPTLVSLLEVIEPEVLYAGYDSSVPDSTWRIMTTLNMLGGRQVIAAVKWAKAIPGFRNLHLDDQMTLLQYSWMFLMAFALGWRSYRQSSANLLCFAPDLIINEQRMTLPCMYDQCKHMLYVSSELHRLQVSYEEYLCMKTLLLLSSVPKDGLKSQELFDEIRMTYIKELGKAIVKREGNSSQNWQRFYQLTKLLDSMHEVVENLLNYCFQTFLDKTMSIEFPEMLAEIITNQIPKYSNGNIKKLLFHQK
Method: as §1

## CC(C)(c1ccc(OC[C@H](O)CO)cc1)c1ccc(OC[C@H](O)CCl)c(I)c1 [Compound 8d, (R)-3-(4-(2-(4-((S)-3-chloro-2-hydroxypropoxy)-3-iodophenyl)propan-2-yl)phenoxy)propane-1,2-diol]
PC3 cells
  viability of PC3 cells: no effect
Estrogen receptor-α (ER)
  ERα activity (ERE-luciferase): not inhibited
Recombinant LBD of PR
  binding to LBD of PR (displacement of fluorescently labeled ligand): does not bind
[1]
  GR activity (GRE-luciferase): not inhibited
